# Source: PubChem BioAssay AID2060499 (Molecular Pharmacology Branch, DTP, NCI, 2025)
# Several values for one entry are separate records, joined by “and”; a condition that tells them apart may be missing. Equal values may be shown once.
# Test system: 777334-354-R2-J4-PDC tumor spheroids with HUVEC/MSC, viability
# Assay: Anticancer human tumor 777334-354-R2-J4-PDC patient-derived pancreatic adenocarcinoma cell line growth inhibition [GQUAD]
# Conditions: for viability, T/C: stronger effect = lower value
# From the text: DNA G-quadruplex Stabilizer Agents in Combinations in Complex Spheroids
# A high-throughput screen of multi-cell type tumor spheroids was designed to identify active combinations of DNA G-quadruplex stabilizer agents and targeted small molecules. Complex spheroids include a stromal component modeled by human endothelial cells (HUVEC) and fibroblasts modeled by human mesenchymal stem cells (MSCs). The concentration ranges selected for each drug and investigational agent were based upon clinically achievable concentrations if the clinical Cmax of the agent was known.
# Compounds. The drugs and investigational agents: pidnarulex (CX-5461; NSC782164), APTO-253 (NSC789042), BRACO-19 (NSC847499), peposertib (NSC802822), ceralasertib (NSC780249), elimusertib (NSC800525), camonsertib (NSC841442), AZD-1390 (NSC803789), olaparib (NSC753686), talazoparib (NSC767125), ART-558 (NSC835418), sotorasib (NSC818433), MRTX-1133 (NSC836407), SN-38 (NSC673596), topotecan (NSC609699), etoposide (NSC141540), doxorubicin (NSC123127), gemcitabine (NSC613327), 5-fluorouracil (NSC19893), paclitaxel (NSC125973), vemurafenib (NSC761431), panobinostat (NSC761190), R-306465 (JNJ-16241199; NSC773264), adavosertib (NSC754352), TP-3654 (NSC805149), carboplatin (NSC241240), KSQ-4279 (NSC840948), and staurosporine (NSC755774) were obtained from the National Cancer Institute (NCI) Developmental Therapeutics Program Chemical Repository (34). The FDA-approved anticancer drug set is available from the NCI Developmental Therapeutics Program. […] The stock solutions were prepared in dimethyl sulfoxide (DMSO, Sigma-Aldrich, St. Louis, MO, cat. D2650) at 800-fold the tested concentration and stored at -70 degrees C prior to their use. All drugs and investigational agents were tested over a range starting from a high concentration at or near the clinical Cmax and decreasing in half-log increments. If the clinical Cmax for an agent had not been determined, the highest concentration tested was 10 microM.
# 2.3 Cell Culture. All cells were maintained in an incubator at 37 degrees C and 5% CO2 with 95% humidity. The PDC lines were cultured according to standard operating procedures established by the NCI PDMR. All PDCs were thawed and cultured in Matrigel-coated flasks prepared with a working solution of 1X Ham's F-12 nutrient mix, without supplementation (Invitrogen, cat. 11765054), 100 U/mL penicillin-streptomycin (Invitrogen, cat. 15140122), and 2.5% Matrigel (Corning Inc., cat. 354248) for the first three passages. The 857933-349-R-J2-PDC line was cultured in 6C/Colon 1B media, which includes advanced DMEM/F-12 (Thermo Fisher Scientific, cat. 12634028), 10 mM HEPES (Thermo Fisher Scientific, cat. 15630080), 1X GlutaMAX supplement (Thermo Fisher Scientific, cat. 35050061), 0.1 mg/mL primocin (InvivoGen, cat. ant-pm-2), 10% defined fetal bovine serum, heat inactivated (HyClone Laboratories Inc., cat. SH30070.03HI), 50% L-WRN conditioned media (ATCC, cat. CRL-3276), 1.25 mM N-Acetyl-L-cysteine (Sigma-Aldrich, cat. A9165), 10 mM nicotinamide (Sigma-Aldrich, cat. N0636), 1X B-27 supplement (Thermo Fisher Scientific, cat. 17504044), 1X N-2 supplement (Thermo Fisher Scientific, cat. 17502048), 10 microM Y-27632 dihydrochloride (Tocris Bioscience, cat. 1254), and 50 ng/mL human EGF recombinant protein (Thermo Fisher Scientific, cat. PHG0311). The 485176-168-R4-J1-PDC line was cultured in Panc media, which includes all 6C/Colon 1B media components plus 100 ng/mL human FGF-10 (Thermo Fisher Scientific, cat. 100-26), 500 nM SB-431542 (Selleckchem, cat. S1067), and gastrin (Tocris, cat. 3006).
# […]
# 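Further: spheroids exposed to compounds for 7 days before readout.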
SMILES,"viability, T/C (compound 0.0316 µM)","viability, T/C (compound 0.1 µM)","viability, T/C (compound 0.316 µM)","viability, T/C (compound 1 µM)","viability, T/C (compound 3.16 µM)","viability, T/C (compound 10 µM)",IC50 (curve of compound),"IC50 (compound alone, run of 03/18/2024)"
O=C(NO)c1cnc(N2CCN(S(=O)(=O)c3ccc4ccccc4c3)CC2)nc1,80.7% and 107% and 88.9%,89.8% and 86% and 83.7%,77.1% (2×) and 79.3%,58% and 59.4% and 44%,11.9% and 9.01% and 3.01%,0.93% and 0.25% and 0.19%,1200 nM and 1070 nM and 793 nM,–
Cc1[nH]c2ccc(F)cc2c1-c1nc2c3cccnc3c3ncccc3c2[nH]1,101% [middle of 12 runs],98% [middle of 12 runs],97.4% [middle of 11 runs],86.4% [middle of 12 runs],43.9% [middle of 12 runs],–,–,2.51 µM [middle of 7 runs]
C=CC(=O)N1CCN(c2nc(=O)n(-c3c(C)ccnc3C(C)C)c3nc(-c4c(O)cccc4F)c(F)cc23)C(C)C1 (configuration not stated),87.7% and 105% and 106%,103% and 97.4% and 81.4%,95.8% and 89.4% and 109%,96.2% and 111% and 105%,113% (2×) and 100%,115% and 100% and 101%,> 10000 nM,–
C#Cc1c(F)ccc2cc(O)cc(-c3ncc4c(N5CC6CCC(C5)N6)nc(OCC56CCCN5CC(F)C6)nc4c3F)c12 (configuration not stated),45.7% and 46.4% and 48.8%,38.8% and 41.4% and 41.3%,35.2% and 32.8% and 38.1%,30.4% and 28.5% and 34%,26.4% and 36.1% and 29.3%,20.9% and 19.6% and 22.6%,< 31.6 nM,–
